Here are results for eight compounds from patent US3976763A, “Chlorpromazine assay” (Hoffmann-La Roche Inc., priority 1975, dated 1976).

Data set [1] concerns antibody in the antiserum of rabbit immunized by the CPZ-BSA immunogen. Nature of the data set: Radioimmunoassay specificity: inhibition of 3H-CPZ binding to antibody. To be noted: for concentration required to produce a 50% inhibition of 3H-chlorpromazine-antibody binding, relative to chlorpromazine: multiple of the CPZ concentration; for binding by the antibody (in words): competition with labeled CPZ. As for the experimental part:
The antiserum of EXAMPLE 2 as used for the radioimmunoassay was diluted with normal rabbit serum which was diluted with phosphate-buffered saline, pH 7.4, at 1:10 dilution. To determine the antibody titre of antiserum, 0.1 ml. of various dilutions of the antiserum was incubated in an assay tube (10 × 75 mm) with 320 pg of ^3 H-CPZ approximately 7,000 dpm, at 4°C. overnight. The volume was adjusted to 0.5 ml. with phosphate-buffered salie, pH 7.4 which is the optimal pH for the assay. The antibody bound CPZ was separated from free CPZ by the addition of saturated ammonium sulfate which was adjusted to pH 7.4 with ammonium hydroxide as described by Farr, J. Infect. Dis. 103, 239 (1958). After two washings with 50% saturated ammonium sulfate, the precipitate was dissolved in 0.5 ml. of water. The content of the tube was transferred to a counting vial and the tube was then washed four times with 3 ml. of Riaflour. The 12 ml. washings were all collected in the vial. The radioactivity was then counted with a Beckman liquid scintillation counter. Thedilution of the antiserum chosen for further studies were 1:7,000.
Appropriate volume of phosphate-buffered saline, pH 7.4 was added to all the tubes containing 0.1 ml. of the antiserum to make a final incubation volume of 0.5 ml. To the tubes were added various quantities ranging from 100 ng. to 10 pg. (10 1) of CPZ, its derivatives, serotonin and dopamine. After a 15 minute preincubation, 10 l. of ^3 H-CPZ was added. The tubes were then incubated overnight at 4°C. followed by precipitation with ammonium sulfate.
Background and non-specific protein binding of ^3 H-CPZ were determined by excluding the antiserum from the incubation mixture. The counts representing the non-specific binding were then subtracted from all samples.
The specificity of the antibody in the antiserum of rabbit immunized by the CPZ-BSA immunogen was determined by incubating the antiserum with a number of CPz derivatives or the biologenic amines in the presence of labeled CPZ. […] CPZ substituted at C6, C7, or C8 with hydroxy group was not bound by the antibody to the same extent as CPZ. In order to obtain a 50% inhibition of ^3 H-CPZ-antibody complex formation, these hydroxylated derivatives of CPZ required concentrations which were 5-10 times that of CPZ. […] The 7hydroxy derivatives of Nor1 -CPZ or Nor2 CPZ likewise were poorly bound by the antibody. Another metabolic product which can be formed from CPZ is CPZ-N-oxide. […] Promazine, the dechlorinated derivative required about 8 times the concentration of CPZ to produce a 50% displacement of the labeled CPZ from the antibody.

Data set [2] is described as follows: Disposition of CPZ in rats: plasma level by radioimmunoassay. To be noted: iv, rat, 10 mg/kg CPZ hydrochloride intravenously, after initial rapid decline. It counts as in vivo, Male Sprague-Dawley rats. As to the method:
To determine the plasma concentration of CPZ, aliquots of plasma from animals which received CPZ were diluted with normal rat plasma. To the assay tubes containing antiserum, phosphate-buffered saline, pH 7.4, ^3 H-CPZ and 10 l of unknown samples were added, and incubated at 4°C. overnight. Free CPZ was separated from the antibody bound CPZ by ammonium sulfate precipitation.
Male Sprague-Dawley rats weighing 210-240 g. were injected intravenously with 10 mg/kg of CPZ hydrochloride. In one group of 6 rats, 0.1 ml. of blood samples were taken from the tail into a heparinized capillary tube at varying time intervals following the injection. The plasma was separated by centrifugation and frozen until assayed. Other 48 rats were killed by decapitation at the same intervals as above, and the brain was removed, frozen on dry ice and then kept in a deep freezer at -80°C. until assayed.
The radioimmunoassay procedure of Example 3 was applied to the determination of CPZ and some minor metabolites in rat plasma and brain following intravenous administration of CPZ hydrochloride.

The nature of data set [3]: Disposition of CPZ in rats: brain level by radioimmunoassay. It is filed as in vivo, Male Sprague-Dawley rats. To be noted: rat.
Description: The extraction of CPZ from the brain homogenate was necessary as the compound bound to the tissue. The brain was homogenized with 4 volumes of 0.05 N HCl. To a 0.1 ml. aliquot of the brain homogenate, 0.05 ml. of 0.5 N NaOH and 1.5 ml. of petroleum ether containing 10% isopropyl alcohol were added. The tube was vortexed twice for 20 seconds and then centrifuged at 3000 r.p.m. at 8°C. for 10 minutes. The tube was dipped in a dry ice-acetone bath and the aqueous layer was frozen. The upper organic layer was then transferred to another tube and evaporated to dryness under vacuum. The residue was dissolved in an appropriate volume of 25% isopropyl alcohol. To the assay tube containing antiserum, phosphate-buffered saline, pH 7.4 and ^3 H-CPZ, 10 μl of unknown sample was added.

Broadly, the half-life is the time in which the quantity being followed falls by half.

Take `CN(C)CCCN1c2ccc(O)cc2Sc2ccc(Cl)cc21` [7-hydroxychlorpromazine]: the “concentration required to produce a 50% inhibition of 3H-chlorpromazine-antibody binding, relative to chlorpromazine” value in data set [1] is 5-10 times.

`CN(C)CCCN1c2cc(O)ccc2Sc2ccc(Cl)cc21` [8-hydroxychlorpromazine]: the “concentration required to produce a 50% inhibition of 3H-chlorpromazine-antibody binding, relative to chlorpromazine” value in data set [1] is listed as 5-10 times.

`CN(C)CCCN1c2ccccc2Sc2ccc(Cl)cc21` [CPZ, Chlorpromazine]: the “concentration producing a 50% inhibition of binding of 3H-CPZ to the antibody” value in data set [1] (320 pg 3H-CPZ, antiserum 1:7,000, 0.5 ml, pH 7.4, 4°C overnight) worked out at 118 pg. The same compound gave a half-life in data set [2] of approximately 4 h. The “time to peak brain level of CPZ and metabolites” value in data set [3] (10 mg/kg CPZ hydrochloride intravenously) was “Five”. In data set [3] (in vivo, iv, 10 mg/kg), the “persistence of peak brain level” value amounted to 30 min.

As for `C[N+](C)([O-])CCCN1c2ccccc2Sc2ccc(Cl)cc21` [CPZ-N-oxide], the “binding by the antibody (in words)” value in data set [1] is given as “not bound to the antibody to any appreciable extent”.

`CN(C)CCCN1c2ccccc2[S+]([O-])c2ccc(Cl)cc21` (stereo not drawn) [chlorpromazine sulfoxide]: the results for the “binding by the antibody (in words)” value in data set [1] and in data set [1] (listed as CPZ-sulfoxide) were “not bound significantly” and “not recognized by the antibody unless the concentrations were high”, respectively.

Turning to `CNCCCN1c2ccccc2Sc2ccc(Cl)cc21` [nor1 -chlorpromazine], the “binding by the antibody (in words)” value in data set [1] is listed as “not bound significantly”; in data set [1] (listed as Nor1 -CPZ) it was “bound by the antibody to a much lesser extent”.

In the case of `NCCCN1c2ccccc2Sc2ccc(Cl)cc21` [nor2 -chlorpromazine], the “binding by the antibody (in words)” value was “not bound significantly” in data set [1] and “failed to recognize the compound unless the concentrations were extremely high” in data set [1] (listed as Nor2 -CPZ).

In the case of `CN(C)CCCN1c2ccccc2Sc2ccccc21` [promazine], the “concentration required to produce a 50% inhibition of 3H-chlorpromazine-antibody binding, relative to chlorpromazine” value in data set [1] was 5-10 times; in data set [1] (listed as Promazine), “about 8 times”.
